Tests used:
[1] = target: T1, mTORC1 (Homo sapiens, UniProt P42345); assay: Immunoblot of mTORC1 activity in TSC2^−/− AML cells; assay type: cell-based; design: AML cells (1.10^6 cells) deficient for TSC2 (TS2^−/−) or reconstituted with wild type TSC2; endogenous in cells; host or cells: AML (angiomyolipoma) cells from a patient, TSC2-/- or reconstituted with wild type TSC2; details: 10 μM, FIG. 15
Experimental: AML cells (1.10^6 cells) deficient for TSC2 (TS2^−/−) or reconstituted with wild type TSC2 (TSC2^+/+) (generous gift from Dr M. Pende, Paris) were treated or untreated for indicated times with 10 μM of compound 25 or rapamycin and then cells were lyzed. 100 μg of protein was loaded and resolved by SDS-PAGE and indicated immunoblots were performed. Total S6 and β-actin serve as loading controls. S6 is phosphorylated by p70S6K on its serine 240 and 244. 4EBP1 is phosphorylated by mTORC1 on its Threonine at positions 37 and 46. p70S6K and 4EBP1 are direct substrates of mTORC1. mTORC1-driven phosphorylation of 4EBP1 can be monitored by the appearance of a high molecular weight band which disappears in presence of compound 25 or Rapamycin (see FIG. 15). Of note, restoration of TS2 expression in AML cells reduces the basal level of S6 and 4EBP1 phosphorylation.
(§1) Immunoblots Excepted for immunoprecipitation experiments in which cells were lyzed with RIPA buffer, cells were lyzed for 30 min at 4° C. in Lysis buffer (25 mM HEPES pH 7.4, 1% v/v Triton X-100, 150 mM NaCl, 2 mM EGTA supplemented with a mix of protease inhibitors). Protein concentration was determined by the bicinchoninic acid method (Pierce, Rockford, Ill., USA) according to the manufacturer's protocol. Proteins were resolved by 8, 10 or 12% SDS-PAGE and transferred to a nitrocellulose membrane (GE Healthcare, Buckinghamshire, UK). […]

[2] = target: T1, mTORC1; assay: Immunoblot of mTORC1 substrates p70S6K-Thr389 and 4EBP1-Thr37 and 46 in CEM cells; assay type: cell-based; design: AML cells (1.10^6 cells) deficient for TSC2 (TS2^−/−) or reconstituted with wild type TSC2; endogenous in cells; details: 2 hours, FIG. 16
Experimental: CEM cells (1·10^6 cells) were incubated with indicated concentrations of compound 25 for 2 hours and lysates of the cells were subjected to Western blot analysis. Inhibitory activity of compound 25 on mTORC1 substrates p70S6K-Thr389 and 4EBP1-Thr37 and 46 and on mTORC2 substrate Akt-Ser473 and on PDK1 substrate Akt-Thr308 was evaluated by immunoblotting. Total 4EBP1, p70S6K, Akt and […] serve as loading controls. The compounds of the invention and more particularly compound 25 may be competitive inhibitors of mTOR because they inhibit mTORC1 (4EBP1 and p70S6K) and mTORC2 substrates (AKT at S473) as shown in FIG. 16.
as §1, with “UK). The membrane was blocked 15 min with TBST (50 mM Tris, 160 mM NaCl, 0.05% v/v Tween 20, pH 7.4) containing 5% w/v dried skimmed milk (TBS™). Primary antibody was incubated overnight at 4° C. in TBS™.” for “UK).”

[3] = system: MDA-MB-453 (HER2 positive) breast tumor cell line; assay: Cell death by MTT assay, MDA-MB-453; assay type: cell-based, human; details: 24 hours, mean of two experiments
Experimental: (§2) The ER-positive breast tumor cell lines MCF-7 and T47-D and the HER2 positive breast tumor cell lines MDA-MB-453 and BT474 (also ER-positive) were incubated with the indicated concentration of each mentioned compound of formula (I) for 24 hours and then cell death was assessed using MTT assay.
(§3) For each cell line, the percentage of cell death (mean of four experiments for cell lines MCF-7 and T47-D, and two experiments for cell lines MDA-MB-453 and BT474) is given in view of the increasing concentration of each tested compound of the invention.
(§4) Cell viability was assessed using the 3-[4,5-dimethylthiazol-2-yl]-2,5-diphenyltetrazolium bromide (MTT) viability assay (1). In brief, cells (4×10^4 per well) were cultured for 20 h in flat-bottomed 96 well plates with various concentrations of the apoptosis inducer. Then 0.015 ml of MTT (5 mg/ml in PBS) was added to each well and incubated for 4 h at 37° C. Formazan salt precipitats were dissolved by adding 0.115 ml of isopropyl alcohol containing 1% formic acid (v/v), and the absorbance was measured at 570 nm.

[4] = system: BT474 (ER-positive/HER2-positive) breast tumor cell line; assay: Cell death by MTT assay, BT474; assay type: cell-based, human; details: 24 hours, mean of two experiments
Experimental: as §2, §3, §4

[5] = In vivo toxicity, repeated intravenous injections in mice; details: 10 mg/kg
Experimental: Mice received repeated intravenous injections of compound 25 (10 mg/kg) or vehicle.

[6] = system: AKT phosphorylation; assay: In cellulo IC50 of AKT phosphorylation in CEM cells (Western blot densitometry); assay type: cell-based; details: Homo sapiens, CCRF-CEM, 2 hours incubation, AKT phosphorylation vs whole AKT, read-out: In vivo IC50
Experimental: CEM cells were incubated for 2 hours with the indicated concentrations of each mentioned compound of formula (I). Cells were then lysed and 100 μg of protein was loaded per line in an SDS-PAGE. Bands from AKT phosphorylation and whole AKT observed by Western blot were scanned and quantified by densitometric analysis. Based on these values, an in cellulo IC50 (half maximal inhibitory concentration) was measured for each compound of formula (I).
Immunoblots Excepted for immunoprecipitation experiments in which cells were lyzed with RIPA buffer, cells were lyzed for 30 min at 4° C. in Lysis buffer (25 mM HEPES pH 7.4, 1% v/v Triton X-100, 150 mM NaCl, 2 mM EGTA supplemented with a mix of protease inhibitors). Protein concentration was determined by the bicinchoninic acid method (Pierce, Rockford, Ill., USA) according to the manufacturer's protocol. Proteins were resolved by 8, 10 or 12% SDS-PAGE and transferred to a nitrocellulose membrane (GE Healthcare, Buckinghamshire, UK). The membrane was blocked 15 min with TBST (50 mM Tris, 160 mM NaCl, 0.05% v/v Tween 20, pH 7.4) containing 5% w/v dried skimmed milk (TBS™). Primary antibody was incubated overnight at 4° C. in TBS™. The membrane was intensively washed (TBST) and then the peroxydase-labeled anti-mouse IgG1 or IgG2a (CliniSciences, Nanterre, France) was added for 45 min. Proteins were visualized with the enhanced chemiluminescence substrate kit (ECL RevelBIOt®, Ozyme, Saint Quentin en Yvelines, France).

[7] = system: T47-D (ER-positive) breast tumor cell line; assay: Cell death by MTT assay, T47-D; assay type: cell-based, human; details: 24 hours, mean of four experiments
Experimental: as §2, §3, §4

O=[N+]([O-])C1=Cc2cc(Br)cc(Br)c2OC1c1ccc(Br)cc1 (centres unmarked) [Compound 25, 6,8-dibromo-2-(4-bromo-phenyl)-3-nitro-2H-chromene]
mTORC1 activity in TSC2^−/− cells [1]: inhibit mTORC1 activity | mTORC1-driven phosphorylation of 4EBP1 (high molecular weight band) ([1]; AML cells): disappears | inhibitory activity on mTORC1 substrates (4EBP1 and p70S6K) [2]: inhibit | percentage of cell death ([3]; MDA-MB-453, 0.390625 μM): 0% | percentage of cell death ([3]; MDA-MB-453, 0.78125 μM): 9.09% | percentage of cell death ([3]; MDA-MB-453, 1.5625 μM): 81% | percentage of cell death ([3]; MDA-MB-453, 3.125 μM): 85.57% | percentage of cell death ([3]; MDA-MB-453, 6.25 μM): 89.213% | percentage of cell death ([3]; MDA-MB-453, 12.5 μM): 95.09% | percentage of cell death ([3]; MDA-MB-453, 25 μM): 99.35% | percentage of cell death ([3]; MDA-MB-453, 50 μM): 100.76% | percentage of cell death ([4]; BT474, 6.25 μM): 75.54% | percentage of cell death ([4]; BT474, 12.5 μM): 95.61% | percentage of cell death ([4]; BT474, 25 μM): 90.49% | percentage of cell death ([4]; BT474, 50 μM): 96.81% | toxicity in mice [5]: did not exhibit toxicity | body weight of the tested mice ([5]; FIG. 13A): maintained | survival of the tested mice ([5]; at 7 days, FIG. 13B): all mice survived | IC50 [6]: 3000 nM | percentage of cell death ([7]; 6.25 μM): 85.31% | percentage of cell death ([7]; 12.5 μM): 91.27% | percentage of cell death ([7]; 25 μM): 90.23% | percentage of cell death ([7]; 50 μM): 91.25%
